Results on nine molecules are retold here after patent publication US7368454B2, “(3,4-dihydro-quinazolin-2-yl)-aryl-amines” (Hoffmann-La Roche Inc., priority 2005, dated 2008).

The assay deals with T1, recombinant human 5-HT5A receptor (Homo sapiens, UniProt P47898).
T1 construct: expressed in transfected cells; host or cells: Human Embryonic Kidney-EBNA (HEK-EBNA) cells, transient expression, membranes
T1 sequence (P47898 whole entry): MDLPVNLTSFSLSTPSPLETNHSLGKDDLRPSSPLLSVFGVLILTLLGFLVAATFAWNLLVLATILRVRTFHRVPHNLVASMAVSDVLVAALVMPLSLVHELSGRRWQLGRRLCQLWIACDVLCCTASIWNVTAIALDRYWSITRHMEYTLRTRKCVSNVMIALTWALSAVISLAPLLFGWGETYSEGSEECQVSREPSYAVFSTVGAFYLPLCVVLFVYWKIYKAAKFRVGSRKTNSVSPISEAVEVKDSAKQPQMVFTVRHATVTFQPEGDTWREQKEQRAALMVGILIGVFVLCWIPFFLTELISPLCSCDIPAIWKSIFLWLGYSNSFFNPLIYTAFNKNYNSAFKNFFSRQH
Put plainly: [3H]LSD radioligand binding assay. Conditions: [3H]LSD approx. 1 nM; membranes from HEK-EBNA cells transiently expressing 5-HT5A; SPA; Ki from IC50 by Cheng-Prussoff equation. Here is the method: A [^3H]LSD radioligand binding assay was used to determine the affinity of the compounds for the recombinant human 5-HT5A receptor, in membranes from transiently (cDNA) expressed 5-HT 5A receptors in Human Embryonic Kidney-EBNA (HEK-EBNA) cells. Assay buffer consisted of Tris (50 mM) buffer containing 1 mM EGTA, 10 mM MgCl2 (pH 7.4) and 10 μM pargyline. The binding assay was carried out in 96-well-plates in the presence of [^3H]LSD (approximately 1 nM), approximately 2 μg/well of membrane protein, and 0.5 mg of Ysi-poly-1-lysine SPA beads in a final volume of 200 μl of buffer. Non-specific binding was defined using methiothepin 2 μM. Compounds were tested at 10 concentrations. All assays were conducted in duplicate and repeated at least two times. Assay plates were incubated for 120 min at room temperature before centrifugation. Bound ligand was determined using a Packard Topcount scintillation counter. IC50 values were calculated using a non-linear curve fitting program and Ki values calculated using the Cheng-Prussoff equation.
Take `FC(F)(F)c1cccc(NC2=Nc3ccccc3CN2)c1` [Example 2, (3,4-Dihydro-quinazolin-2-yl)-(3-trifluoromethyl-phenyl)-amine]: the Ki (as a rule, the dissociation constant of the complex between target and ligand, obtained from inhibition or displacement) worked out at 91 nM.

For the molecule `Clc1cccc(NC2=Nc3ccccc3CN2)c1` [Example 10, (3-Chloro-phenyl)-(3,4-dihydro-quinazolin-2-yl)-amine], the Ki was 300 nM.

Turning to `c1ccc2c(c1)CNC(Nc1cccc3ccccc13)=N2` [Example 6, (3,4-Dihydro-quinazolin-2-yl)-naphthalen-1-yl-amine], the inhibition constant (Ki) came to 155 nM.

With `Clc1ccc(NC2=Nc3ccccc3CN2)cc1` [Example 15, (4-Chloro-phenyl)-(3,4-dihydro-quinazolin-2-yl)-amine], the Ki came out at 990 nM.

In the case of `Fc1ccccc1NC1=Nc2ccccc2CN1` [Example 16, (3,4-Dihydro-quinazolin-2-yl)-(2-fluoro-phenyl)-amine; hydriodide], the Ki came out at 1000 nM.

As to `FC(F)(F)c1cccc(NC2=Nc3cccc(Cl)c3CN2)c1` [Example 3, (5-Chloro-3,4-dihydro-quinazolin-2-yl)-(3-trifluoromethyl-phenyl)-amine], the inhibitory constant (Ki) came out at 118 nM.

Regarding `Cc1cccc(NC2=Nc3ccccc3CN2)c1` [Example 4, (3,4-Dihydro-quinazolin-2-yl)-m-tolyl-amine], the Ki was 143 nM.

Turning to `Cc1cccc2c1CNC(Nc1cccc(C(F)(F)F)c1)=N2` [Example 1, (5-Methyl-3,4-dihydro-quinazolin-2-yl)-(3-trifluoromethyl-phenyl)-amine], the inhibition constant (Ki) came out at 85 nM.

Turning to `c1ccc2c(c1)CNC(Nc1ccc3c(c1)CCC3)=N2` [Example 5, (3,4-Dihydro-quinazolin-2-yl)-indan-5-yl-amine], the inhibitory constant (Ki) turned out to be 149 nM.
